# Measured values published in patent US20050118129A1, “Gentle and enhanced preservative systems” (priority 2003, published 2005).
# Key:
# [1] = tested on: Aspergillus niger (ATCC 16404); assay: Comparison of strength between saccharides, preservative efficacy against fungus; assay type: cell-based
# Experimental: (§1) The preservative efficacy of various saccharides and a cationic polysaccharide were tested against one bacteria, i.e., Staphylococcus aureus (ATCC 6538), and against one fungus, i.e., Aspergillus niger (ATCC 16404). Acceptance criteria for the bacteria established that the number of viable bacteria, recovered per ml, be reduced by not less than 3.0 logs at 14 days. After the rechallenge at day 14, the concentration of bacteria shall be reduced by at least 3.0 logs at day 28. Acceptance criteria for the fungus established that the number of viable yeasts and molds, recovered per ml, remain at or below the initial concentrations within an experimental error of ±0.5 logs within 14 days. After day 28, the concentration of mold and yeast shall remain at or below the concentrations after rechallenge within experimental error of ±0.5 logs. Results of the saccharide/cationic polysaccharide preservative efficacy test are set forth below in Table 1.
# [2] = tested on: Staphylococcus aureus (ATCC 6538); assay: Comparison of strength between saccharides, preservative efficacy against bacteria; assay type: cell-based
# Experimental: as §1
SMILES,Log Reduction of Aspergillus niger (ATCC 16404) at 28 Days (Fungus) [1] [Log],Log Reduction of Staphylococcus aureus (ATCC 6538) at 28 Days (Bacteria) [2] [Log]
O=C[C@H](O)[C@@H](O)[C@H](O)[C@H](O)CO [D-Glucose],3.7,1.9
O=C[C@H](O)[C@@H](O)[C@@H](O)[C@H](O)CO [Galactose],1.4,2.2
OC[C@@H](O)[C@@H](O)[C@H](O)[C@H](O)CO [Mannitol],2.4,2.0
CO[C@H]1O[C@H](CO)[C@@H](O)[C@H](O)[C@H]1O [Methyl-α-D-gluco-pyranose],1.6,1.7
CO[C@H]1O[C@H](CO)[C@@H](O)[C@H](O)[C@H]1O [Methyl-α-D-gluco-pyranoside],2.9,1.2
OC[C@H]1O[C@H](O[C@H]2O[C@H](CO)[C@@H](O)[C@H](O)[C@H]2O)[C@H](O)[C@@H](O)[C@@H]1O [Trehalose],2.0,1.3
O=C(CO)[C@@H](O[C@H]1O[C@H](CO)[C@@H](O)[C@H](O)[C@H]1O)[C@H](O)[C@H](O)CO [Turanose],2.1,1.4
